Data taken from US12590057B2, “Crystalline complexes” (Theracryf PLC, priority 2020, dated 2026).

Legend:
Format in all cases: physicochemical
[1] = XRPD physical form after storage; conditions: double bagged in HDPE bottle
Experimental: XRPD diffractograms were collected on a PANalytical Empyrean diffractometer using Cu Kα radiation (45 kV, 40 mA) in transmission geometry. A 0.5° sat, 4 mm mask and 0.04 rad Soller slits with a focusing mirror were used on the incident beam. A PIXcel^3D detector, placed on the diffracted beam, was fitted with a receiving slit and 0.04 rad Soller slits. The software used for data collection was X'Pert Data Collector using X'Pert Operator Interface. The data were analysed and presented using Diffrac Plus EVA or HighScore Plus.
After removal from the vacuum oven (day 0), Example 3 was reanalysed by XRPD in reflection mode on days 7, 9 and 29.
(§1) In a separate study, samples of Form 3 (Example 5.3; batch ref. 491-PAL-18) having an initial water content by KF of 2.3% w/w were tested for water content at various time points after storage double bagged in a HDPE bottle under various conditions as shown in Table 17.

[2] = Preliminary stability study, related substances by HPLC
Experimental: Analysis of samples of sulforaphane:alpha-cyclodextrin complexes as prepared herein were carried out by HPLC according to the following method: • Column—Phenomenex Gemini C18, 5 μm, 110 Å, 250×4.6 mm; • Mobile Phase A: Water (+0.1% TFA); • Mobile Phase B: Acetonitrile (+0.1% TFA); • Flow: 1.5 mL/min; • Injection Volume: 10 μL; • Column Temperature: 25° C.; • Run Time: 40 minutes; • Sample preparation—Accurately weighed and transferred about 320 mg±30 mg of the sample to a 25-mL volumetric flask, added about 15 mL of diluent (70% water, 30% acetonitrile, 0.1% TFA) and mixed until dissolved. Diluted to volume with diluent and mixed. Transferred 3-4 mL to a syringe and filtered using a 0.45 PTFE filter, discarding the first 1-2 ml, and filtered into an autosampler vial and sealed with PTFE lined cap (prepared in duplicate); • HPLC Gradient according to Table 12
Sulforaphane and certain related impurity peaks are summarised in Table 13, Characterisation of the impurities was carried out by LC-MS and ^1H-NMR. Relative Retention Times (RRT) are based on the HPLC method described above.
Samples of Form 1 (batch ref. LS19-0004-S-8002), Form 3 prepared by minimally-agitated drying (Example 5.3; batch ref. 491-PAL-18) and Form 3 prepared by continuously-agitated filter drying (Example 5B—trial 5; batch ref. 00173-005) were stored at 5° C. (Table 14) and at 25° C./60% RH (Table 15) for 8 weeks in 60 ml Duma® bottles fitted with 45 mm Duma® caps and samples were analysed by HPLC according to the above method.

[3] = KF water content of stability samples
Experimental: The water content of each sample was measured on a Metrohm 874 Oven Sample Processor at 150° C. with 851 Titrano Coulometer using Hydranal Coulomat AG oven reagent and nitrogen purge. Weighed solid samples were introduced into a sealed sample vial. Approximately 10 mg of sample was used per titration and duplicate determinations were made. […] Data collection and analysis were performed using Tiamo software.
The water content of samples of Form 1 (batch ref. LS19-0004-3-8002), Form 3 prepared by minimally-agitated drying ([…]; batch ref. 491-PAL-18) and Form 3 prepared by continuously-agitated filter drying (Example 5B trial 5; batch ref. 00173-005) was analysed by KF at the start of the stability study (initial) and after 2, 4 and 8 weeks storage in 60 ml Duma® bottles fitted with 45 mm Duma® caps (without desiccant) at 25° C./60% RH—see Table 16;
as §1

[4] = 25° C./60% RH stability, Initial
[5] = 2 weeks, Duma bottles without desiccant, 25° C./60% RH
[6] = 4 weeks, Duma bottles without desiccant, 25° C./60% RH
[7] = 8 weeks, Duma bottles without desiccant, 25° C./60% RH
[8] = Initial, Duma bottles without desiccant, 25° C./60% RH study

C[S+]([O-])CCCCN=C=S.OC[C@H]1O[C@@H]2O[C@H]3[C@H](O)[C@@H](O)[C@@H](O[C@H]4[C@H](O)[C@@H](O)[C@@H](O[C@H]5[C@H](O)[C@@H](O)[C@@H](O[C@H]6[C@H](O)[C@@H](O)[C@@H](O[C@H]7[C@H](O)[C@@H](O)[C@@H](O[C@H]1[C@H](O)[C@H]2O)O[C@@H]7CO)O[C@@H]6CO)O[C@@H]5CO)O[C@@H]4CO)O[C@@H]3CO [Form 3 (Example 5.3)]
XRPD main peaks of stability sample ([1]; 1 month, 40° C./75% RH): concordant with Form 3 | XRPD main peaks of stability sample ([1]; 3 month, 25° C./60% RH): concordant with Form 3 | Related substances, HPLC RRT 0.56 (Dimer) ([2]; 5° C. stability, 8 wk): <0.05 % Area | Related substances, HPLC RRT 0.60 (α-CD adduct) ([2]; 5° C. stability, 8 wk): 1.19 % Area | Related substances, HPLC RRT 1.14 (Mixed dimer) ([2]; 5° C. stability, 8 wk): 0.05 % Area | Related substances, HPLC RRT 1.21 (Erysolin) ([2]; 5° C. stability, 8 wk): 0.28 % Area | Related substances, HPLC RRT 1.58 (Thioether dimer) ([2]; 5° C. stability, 8 wk): 0.07 % Area | Related substances, Total Impurities ([2]; 5° C. stability, 8 wk): 1.98 % Area | Related substances, HPLC RRT 0.56 (Dimer) ([2]; 5° C. stability, Initial): <0.05 % Area | Related substances, HPLC RRT 0.60 (α-CD adduct) ([2]; 5° C. stability, Initial): 0.95 % Area | Related substances, HPLC RRT 1.14 (Mixed dimer) ([2]; 5° C. stability, Initial): 0.05 % Area | Related substances, HPLC RRT 1.21 (Erysolin) ([2]; 5° C. stability, Initial): 0.29 % Area | Related substances, HPLC RRT 1.58 (Thioether dimer) ([2]; 5° C. stability, Initial): 0.08 % Area | Related substances, Total Impurities ([2]; 5° C. stability, Initial): 1.71 % Area | Related substances, HPLC RRT 0.56 (Dimer) ([2]; 25° C./60% RH stability, 8 wk): 0.26 % Area | Related substances, HPLC RRT 0.60 (α-CD adduct) ([2]; 25° C./60% RH stability, 8 wk): 3.21 % Area | Related substances, HPLC RRT 1.14 (Mixed dimer) ([2]; 25° C./60% RH stability, 8 wk): 0.05 % Area | Related substances, HPLC RRT 1.21 (Erysolin) ([2]; 25° C./60% RH stability, 8 wk): 0.27 % Area | Related substances, HPLC RRT 1.58 (Thioether dimer) ([2]; 25° C./60% RH stability, 8 wk): 0.07 % Area | Related substances, Total Impurities ([2]; 25° C./60% RH stability, 8 wk): 4.57 % Area | Related substances, HPLC RRT 0.56 (Dimer) [2, 4]: <0.05 % Area | Related substances, HPLC RRT 0.60 (α-CD adduct) [2, 4]: 0.95 % Area | Related substances, HPLC RRT 1.14 (Mixed dimer) [2, 4]: 0.05 % Area | Related substances, HPLC RRT 1.21 (Erysolin) [2, 4]: 0.29 % Area | Related substances, HPLC RRT 1.58 (Thioether dimer) [2, 4]: 0.08 % Area | Related substances, Total Impurities [2, 4]: 1.71 % Area | KF water content [3, 5]: 2.5 % w/w | KF water content [3, 6]: 2.1 % w/w | KF water content ([3]; 5° C., 1 month, double bagged in HDPE bottle): 4.2 % w/w | KF water content ([3]; 5° C., 3 months, double bagged in HDPE bottle): 4.6 % w/w | KF water content ([3]; 5° C., 6 months, double bagged in HDPE bottle): 4.7 % w/w | KF water content ([3]; 5° C., Initial, double bagged in HDPE bottle): 2.3 % w/w | KF water content [3, 7]: 3.2 % w/w | KF water content ([3]; 25° C./60% RH, 1 month, double bagged in HDPE bottle): 6.1 % w/w | KF water content ([3]; 25° C./60% RH, 3 months, double bagged in HDPE bottle): 5.7 % w/w | KF water content ([3]; 25° C./60% RH, 6 months, double bagged in HDPE bottle): 6.1 % w/w | KF water content ([3]; 25° C./60% RH, Initial, double bagged in HDPE bottle): 2.3 % w/w | KF water content ([3]; 40° C./75% RH, 1 month, double bagged in HDPE bottle): 6.2 % w/w | KF water content ([3]; 40° C./75% RH, 3 months, double bagged in HDPE bottle): 6.2 % w/w | KF water content ([3]; 40° C./75% RH, Initial, double bagged in HDPE bottle): 2.3 % w/w | KF water content [3, 8]: 2.4 % w/w

C[S+]([O-])CCCCN=C=S.OC[C@H]1O[C@@H]2O[C@H]3[C@H](O)[C@@H](O)[C@@H](O[C@H]4[C@H](O)[C@@H](O)[C@@H](O[C@H]5[C@H](O)[C@@H](O)[C@@H](O[C@H]6[C@H](O)[C@@H](O)[C@@H](O[C@H]7[C@H](O)[C@@H](O)[C@@H](O[C@H]1[C@H](O)[C@H]2O)O[C@@H]7CO)O[C@@H]6CO)O[C@@H]5CO)O[C@@H]4CO)O[C@@H]3CO [Form 3 (Example 5B-trial 5)]
Related substances, HPLC RRT 0.56 (Dimer) ([2]; 5° C. stability, 8 wk): 0.15 % Area | Related substances, HPLC RRT 0.60 (α-CD adduct) ([2]; 5° C. stability, 8 wk): 0.42 % Area | Related substances, HPLC RRT 1.14 (Mixed dimer) ([2]; 5° C. stability, 8 wk): 0.05 % Area | Related substances, HPLC RRT 1.21 (Erysolin) ([2]; 5° C. stability, 8 wk): 0.29 % Area | Related substances, HPLC RRT 1.58 (Thioether dimer) ([2]; 5° C. stability, 8 wk): <0.05 % Area | Related substances, Total Impurities ([2]; 5° C. stability, 8 wk): 1.30 % Area | Related substances, HPLC RRT 0.56 (Dimer) ([2]; 5° C. stability, Initial): 0.15 % Area | Related substances, HPLC RRT 0.60 (α-CD adduct) ([2]; 5° C. stability, Initial): 0.36 % Area | Related substances, HPLC RRT 1.14 (Mixed dimer) ([2]; 5° C. stability, Initial): <0.05 % Area | Related substances, HPLC RRT 1.21 (Erysolin) ([2]; 5° C. stability, Initial): 0.28 % Area | Related substances, HPLC RRT 1.58 (Thioether dimer) ([2]; 5° C. stability, Initial): <0.05 % Area | Related substances, Total Impurities ([2]; 5° C. stability, Initial): 1.16 % Area | Related substances, HPLC RRT 0.56 (Dimer) ([2]; 25° C./60% RH stability, 8 wk): 0.28 % Area | Related substances, HPLC RRT 0.60 (α-CD adduct) ([2]; 25° C./60% RH stability, 8 wk): 1.15 % Area | Related substances, HPLC RRT 1.14 (Mixed dimer) ([2]; 25° C./60% RH stability, 8 wk): 0.06 % Area | Related substances, HPLC RRT 1.21 (Erysolin) ([2]; 25° C./60% RH stability, 8 wk): 0.28 % Area | Related substances, HPLC RRT 1.58 (Thioether dimer) ([2]; 25° C./60% RH stability, 8 wk): <0.05 % Area | Related substances, Total Impurities ([2]; 25° C./60% RH stability, 8 wk): 2.35 % Area | Related substances, HPLC RRT 0.56 (Dimer) [2, 4]: 0.15 % Area | Related substances, HPLC RRT 0.60 (α-CD adduct) [2, 4]: 0.36 % Area | Related substances, HPLC RRT 1.14 (Mixed dimer) [2, 4]: <0.05 % Area | Related substances, HPLC RRT 1.21 (Erysolin) [2, 4]: 0.28 % Area | Related substances, HPLC RRT 1.58 (Thioether dimer) [2, 4]: <0.05 % Area | Related substances, Total Impurities [2, 4]: 1.16 % Area | KF water content [3, 5]: 3.3 % w/w | KF water content [3, 6]: 2.6 % w/w | KF water content [3, 7]: 3.6 % w/w | KF water content [3, 8]: 2.9 % w/w
